According to patent US20250115571A1, “OXOPIPERAZINE DERIVATIVES” (Inthera Bioscience AG, priority 2017, published 2025):

How the values were obtained:
[1] = tested on: HCT116 human colon cancer cells; assay: Cell-derived xenograft mouse model for colorectal cancer (HCT116 CDX); assay type: in vivo; details: for T/C (tumor-to-control ratio, volume/volume): day 37
Procedure: Female BALB/c nude mice (8-9 weeks of age) were injected with HCT116 human colon cancer cells. The cells were inoculated subcutaneously into the left flank of 48 mice. When tumors reached a mean volume of approximately 100 mm^3, mice were randomly assigned to eight treatment groups of each six mice (TABLE 14). Body weights were measured three times weekly prior to the initiation of dosing and daily thereafter. Tumor burden was assessed by caliper measurement twice weekly. Dosing breaks were applied when tolerability issues arose (body weight loss>10%). The study was terminated four weeks post first dosing. The experiment was performed in the Crown Bioscience Ltd. (Beijing) testing facility (Ground Floor, Light Muller Building, Changping Sector of Zhongguancun Scientific Park, No. 21 Huoju Road, Changping District, Beijing, CHN).

SNU-5 = assay: 5-day cell proliferation assay (CTG); assay type: cell-based; details: Homo sapiens, 120 h, SNU-5, Stomach/Gastric
Procedure: (§1) For screening using a proliferation assay, the cells used were cultured at 37° C. with 5% CO2, except for those being cultured with L-15 medium (37° C. and 100% air, TABLE 7). Compound stock solutions (10 mM) were made in sterile water, aliquoted and stored at room temperature. Cisplatin was used as reference Control. Plastic consumables, culture media and supplements were purchased from well-known suppliers (TABLE 8).
(§2) Cell seeding (day −1). When necessary, cells were trypsinized using standard methods (see e.g. example 01). Cells were collected and resuspended in 5-6 mL of appropriate culture medium, counted and diluted to the needed density. Fifty-four μl (microliter) cells were seeded per well in a 384-well plate. Extra four wells per cell line were seeded on an additional plate for Day 0 reading (baseline cell density). Cells were incubated at 37° C. overnight.
(§3) Compound treatment and Day 0 reading (day 0). Tenfold final concentration of test compounds and Cisplatin were prepared in cell culture media (work dilutions). Six μl of work dilution solutions were dispensed into the corresponding wells in 384-well plates to bring the total volume up to 60 μl. Conditions were tested in triplicate. The plates were then incubated at 37° C. for five days. For the day 0 reading, 30 μl of CTG and 6 μl cell culture medium were added to the day 0 plates, contents mixed for 2 min on a plate shaker, and the plates incubated for 10 min at room temperature in the dark. Luminescence was recorded on an EnVision Multi Label Reader (2104-0010A, PerkinElmer, USA).
(§4) Endpoint CTG reading (day 5). The amounts of cells in the plates was determined by endpoint CTG-test. Thirty μl of CTG were added to the 60 μl of cell culture per well, contents mixed for 2 min on a plate shaker, and the plates incubated for 10 min at room temperature in the dark. Luminescence was recorded on an EnVision Multi Label Reader.
(§5) Data analysis. Fifty percent growth inhibition concentrations (GI50) were calculated based on percentage of control data (untreated cells) from each cell line (TABLE 5 (this example) and TABLE 6). Curves were fitted using a nonlinear regression model with a sigmoidal dose response. Examples of obtained curves are depicted in FIG. 2A-2F.

MRC-5 = assay: 5-day cell proliferation assay (CTG); assay type: cell-based; details: Homo sapiens, MRC5, 120 h, MRC-5, Lung
Procedure: as §1, §2, §3, §4, §5

HT-29 = assay: 5-day cell proliferation assay (CTG); assay type: cell-based; details: Homo sapiens, 120 h, HT-29, Colorectal
Procedure: as §1, §2, §3, §4, §5

RPWE-1 = assay: 5-day cell proliferation assay (CTG); assay type: cell-based; details: Homo sapiens, 120 h, RPWE-1 (Table 6: RWPE-1), Prostate
Procedure: as §1, §2, §3, §4, §5

HCT116 [2] = assay: 5-day cell proliferation assay (CTG); assay type: cell-based; details: Homo sapiens, HCT-116, 120 h, HCT116, Colorectal
Procedure: as §1, §2, §3, §4, §5

SW948 = assay: 5-day cell proliferation assay (CTG); assay type: cell-based; details: Homo sapiens, 120 h, SW948, Colorectal
Procedure: as §1, §2, §3, §4, §5

SW620 = assay: 5-day cell proliferation assay (CTG); assay type: cell-based; details: Homo sapiens, SW-620, 120 h, SW620, Colorectal
Procedure: as §1, §2, §3, §4, §5

SNU-16 = assay: 5-day cell proliferation assay (CTG); assay type: cell-based; details: Homo sapiens, 120 h, SNU-16, Stomach/Gastric
Procedure: as §1, §2, §3, §4, §5

HS-5 = assay: 5-day cell proliferation assay (CTG); assay type: cell-based; details: Homo sapiens, HS5, 120 h; HS-5, 5-day cell proliferation
Procedure: as §1, §2, §3, §4, §5

HS 746.T = assay: 5-day cell proliferation assay (CTG); assay type: cell-based; details: Homo sapiens, Hs746T, 120 h, Stomach/Gastric
Procedure: as §1, §2, §3, §4, §5

SW48 = assay: 5-day cell proliferation assay (CTG); assay type: cell-based; details: Homo sapiens, 120 h, SW48, Colorectal
Procedure: as §1, §2, §3, §4, §5

HDFA (fibroblast) = assay: 5-day cell proliferation assay (CTG); assay type: cell-based; details: Homo sapiens, 120 h, Skin, highest tested concentration 10 μM
Procedure: as §1, §2, §3, §4, §5

[3] = tested on: hormone-refractory DU-145 human prostate cancer cells; assay: Cell-derived xenograft mouse model for prostate cancer (DU-145 CDX); assay type: in vivo; details: p.o. QD × 4 weeks; for T/C (tumor-to-control ratio, volume/volume): day 35
Procedure: Male BALB/c nude mice (7-9 weeks of age) were injected with hormone-refractory DU-145 human prostate cancer cells. The cells were inoculated subcutaneously into the left flank of 48 mice. When tumors reached a mean volume of approximately 105 mm^3, mice were randomly assigned to eight treatment groups of each six mice (TABLE 12). Body weights were measured three times weekly prior to the initiation of dosing and daily thereafter. Tumor burden was assessed by caliper measurement three times weekly. Dosing breaks were applied when tolerability issues arose (body weight loss>10%). The study was terminated 4 weeks post first dosing. The experiment was performed in the Crown Bioscience Ltd. (Beijing) testing facility (Ground Floor, Light Muller Building, Changping Sector of Zhongguancun Scientific Park, No. 21 Huoju Road, Changping District, Beijing, CHIN).

A549 = assay: 9-day colony survival assay (CFA); assay type: cell-based; details: Homo sapiens, 216 h, A549 (lung), read-out: GI50 (50% growth inhibition)
HCT116 [4] = assay: 9-day colony survival assay (CFA); assay type: cell-based; details: Homo sapiens, HCT-116, 216 h, HCT116 (colon), read-out: GI50 (50% growth inhibition)

Compound	Tumor Size day 37 (Mean ± SEM) ([1]; 3 mg/kg, p.o. QD) [mm^3]	Tumor Size day 37 (Mean ± SEM) ([1]; 6 mg/kg, p.o. QD) [mm^3]	p vs. Group-2 (Avastin, 10 mg/kg, BIW) ([1]; 6 mg/kg, p.o. QD)	T/C (tumor-to-control ratio, volume/volume) ([1]; 6 mg/kg, p.o. QD) [%]	GI50 (SNU-5) [nM]	GI50 (MRC-5) [nM]	GI50 (HT-29) [nM]	GI50 (RPWE-1) [nM]	GI50 (HCT116 [2]) [nM]	GI50 (SW948) [nM]	GI50 (SW620) [nM]	GI50 (SNU-16) [nM]	GI50 (HS-5) [nM]	GI50 (HS 746.T) [nM]	GI50 (SW48) [nM]	GI50 (HDFA (fibroblast)) [nM]	Tumor Size day 35 (Mean ± SEM) ([3]; 3 mg/kg) [mm^3]	T/C (tumor-to-control ratio, volume/volume) ([3]; 3 mg/kg) [%]	GI50 (A549) [nM]	GI50 (HCT116 [4]) [nM]	also measured
CC(C)C[C@@H]1NCCN([C@@H](CC(C)C)C(=O)N2CCC3(C[C@@H]2C)OCC(CN2CCCC2)CO3)C1=O (stereo partly drawn) [Compound 258, (3S)-1-[(2S)-4-methyl-1-oxo-1-[(3s,6s,8S)-8-methyl-3-(pyrrolidin-1-ylmethyl)-1,5-dioxa-9-azaspiro[5.5]undec-an-9-yl]pentan-2-yl]-3-(2-methylpropyl)piper-azin-2-one (^≠), isomer Z]	436.2 ± 58.9	253.2 ± 39.2	Group-2 vs. Group-4, p = 0.001;	21.3	4	12	4	4	5	10	4	13	5	8	9	> 10000	105 ± 25	15.2	5	1.5	p vs. Group-2 (Avastin, 10 mg/kg, BIW) ([1]; 3 mg/kg, p.o. QD): Group-2 vs. Group-5, p = 0.028;; T/C (tumor-to-control ratio, volume/volume) ([1]; 3 mg/kg, p.o. QD): 36.7%; Tumor Size day 37 (Mean ± SEM) ([1]; 20 mg/kg, p.o. BIW): 696.8 ± 93.7 mm^3; p vs. Group-2 (Avastin, 10 mg/kg, BIW) ([1]; 20 mg/kg, p.o. BIW): Group-2 vs. Group-3, p = 0.865;; T/C (tumor-to-control ratio, volume/volume) ([1]; 20 mg/kg, p.o. BIW): 58.7%; Tumor Size day 35 (Mean ± SEM) ([3]; 1 mg/kg): 378 ± 27 mm^3; T/C (tumor-to-control ratio, volume/volume) ([3]; 1 mg/kg): 54.5%; Tumor Size day 35 (Mean ± SEM) ([3]; 6 mg/kg): 32 ± 2 mm^3; T/C (tumor-to-control ratio, volume/volume) ([3]; 6 mg/kg): 4.6%; Tumor Size day 35 (Mean ± SEM) ([3]; 10 mg/kg): 47 ± 4 mm^3; T/C (tumor-to-control ratio, volume/volume) ([3]; 10 mg/kg): 6.8%
CC(C)C[C@@H]1NCCN([C@@H](CC(C)C)C(=O)N2CCC3(C[C@@H]2C)OCC(CN2CCC4(CC2)CC4)CO3)C1=O (stereo partly drawn) [Compound 279, (3S)-1-[(2S)-4-methyl-1-oxo-1-[(3s,6s,8S)-3-{6-azaspiro[2.5]octan-6-ylmethyl}-8-methyl-1,5-dioxa-9-azaspiro[5.5]undec-an-9-yl]pentan-2-yl]-3-(2-methylpropyl)piper-azin-2-one (^≠), isomer Z]	–	1064.0 ± 141.1	Group-2 vs. Group-6, p = 0.070;	89.6	3	10	4	3	3	3	2	10	3	5	6	> 10000	516 ± 59	74.5	5	1	–
CC(C)C[C@@H]1NCCN([C@@H](CC(C)C)C(=O)N2CCC3(C[C@@H]2C)OCC(CN2CCC2)CO3)C1=O (stereo partly drawn) [Compound 284, (3S)-1-[(2S)-4-methyl-1-oxo-1-[(3s,6s,8S)-3-(azetidin-1-ylmethyl)-8-methyl-1,5-dioxa-9-azaspiro[5.5]undec-an-9-yl]pentan-2-yl]-3-(2-methylpropyl)piper-azin-2-one (^≠), isomer Z]	827.4 ± 125.7	942.0 ± 114.9	Group-2 vs. Group-7, p = 0.165;	79.3	6	25	7	10	9	12	7	22	10	14	14	> 10000	347 ± 48	50.1	10	1.5	p vs. Group-2 (Avastin, 10 mg/kg, BIW) ([1]; 3 mg/kg, p.o. QD): Group-2 vs. Group-8, p = 0.509;; T/C (tumor-to-control ratio, volume/volume) ([1]; 3 mg/kg, p.o. QD): 69.7%
